Test results published in EP1900728A1 (Genecare Research Institute Co., Ltd, priority 2005, dated 2006).

Biological target: T1, IκBα ubiquitinating enzyme (SCF complex: ROC1, Cullin1, Skp1, His-TrCP1; with E1, UbcH5b) (Homo sapiens, UniProt P62877+P63208+Q13616+Q9Y297)
T1 construct: His (polyhistidine); made in house; host or cells: insect cells (baculovirus) for the SCF complex and His-E1; E. coli for His-UBCH5b
Assay: Measurement of ubiquitinating enzyme activity (IκBα ubiquitination, time-resolved fluorescence with Eu(K)-labeled ubiquitin and XL665-labeled anti-GST antibody)
Format: biochemical
Details: enzyme activity inhibition test, method (1), Table 5; read-out: EVALUATION
Protocol: Method 1: Measurement of ubiquitinating enzyme activity
A recombinant vector His-UBCH5b containing a polyhistidine tag (His) and UBCH5b was prepared. E. coli was transformed with the vector, the protein was expressed, and affinity purification was carried out using Ni-NTA agarose (Qiagen). Four types of recombinant baculoviruses (ROC1, Cullin1, Skp1, and His-TrCP1) were prepared for the SCF complex protein, insect cells were infected in quadruplicate for expression, and affinity purification was carried out using Ni-NTA agarose. Recombinant baculoviruses His-IKKβ, His-E1 were prepared. The insect cells were infected with each of those for expression, and affinity purification was carried out using Ni-NTA agarose. A recombinant vector GST-IκBα was prepared by fusing glutathione-S-transferase tag (GST) and IκBα, E. coli was transformed with the vector for the protein expression, and affinity purification was carried out using glutathione sepharose (Amersham Biosciences). Genetic transformants were prepared by PCR amplification followed by recombination, all of which were based on published human-derived sequences.
Phosphorylation reaction of IκBα was performed by incubating the above-mentioned assay buffer (50 mM Tris-HCl (pH7.4), 2 mM ATP, 5 mM MgCl2, 0.5 mM DTT, 0.1% BSA) containing IκBα and IKKβ at room temperature for 1 hour. Ubiquitination reactions were carried out as follows. Compound samples at various concentrations, ubiquitin, Eu (K)-labeled ubiquitin, E1, UbcH5b, and SCF complex were added to phosphorylated IκBα, and then this was incubated at room temperature for 30 minutes. The reaction was terminated by adding EDTA, the above-mentioned revelation buffer (100 mM phosphate buffer (pH7.0), 0.5 M KF, 0.1% BSA) containing XL665-labeled anti-GST antibody was added and this was left to stand at room temperature for 2 hours. Measurements were made using ARVO-HTS (Perkin Elmer). The ratio of fluorescence intensities at 620 nm and 665 nm (Em 665 nm/Em 620 nm x 10,000) with excitation light at 337 nm was measured.
The ubiquitination level without the addition of a compound sample was used as the control value, and the level in the absence of SCF complex was used as the blank value for the assays. Inhibitory activities of the compounds were indicated as % inhibition = 100 - (value with a compound sample added - blank value) / (control value - blank value) x 100. IC50 was indicated as the concentration of the compound showing 50% inhibition. Eu (K)-labeled ubiquitin, XL665-labeled anti-GST antibody, and XL665-labeled anti-His antibody were purchased from CIS bio international. Costar solid black plates (96 wells) were used for the assays.

T1 sequence (Q9Y297 whole entry): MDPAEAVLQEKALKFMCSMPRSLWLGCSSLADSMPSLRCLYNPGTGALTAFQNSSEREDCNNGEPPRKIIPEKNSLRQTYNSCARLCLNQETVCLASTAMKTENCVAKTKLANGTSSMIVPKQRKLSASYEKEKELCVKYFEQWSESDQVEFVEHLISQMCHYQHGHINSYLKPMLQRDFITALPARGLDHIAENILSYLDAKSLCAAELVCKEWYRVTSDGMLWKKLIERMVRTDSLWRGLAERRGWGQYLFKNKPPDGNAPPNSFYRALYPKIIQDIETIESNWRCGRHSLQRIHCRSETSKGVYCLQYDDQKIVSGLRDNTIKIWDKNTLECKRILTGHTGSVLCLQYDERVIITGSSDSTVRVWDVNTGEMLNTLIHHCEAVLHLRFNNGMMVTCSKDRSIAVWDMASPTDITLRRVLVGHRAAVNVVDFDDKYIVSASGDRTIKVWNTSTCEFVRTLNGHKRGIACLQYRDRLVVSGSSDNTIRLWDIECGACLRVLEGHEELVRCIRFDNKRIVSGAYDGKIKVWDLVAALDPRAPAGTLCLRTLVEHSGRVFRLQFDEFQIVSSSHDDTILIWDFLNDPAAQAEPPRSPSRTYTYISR
T1 sequence (Q13616 whole entry): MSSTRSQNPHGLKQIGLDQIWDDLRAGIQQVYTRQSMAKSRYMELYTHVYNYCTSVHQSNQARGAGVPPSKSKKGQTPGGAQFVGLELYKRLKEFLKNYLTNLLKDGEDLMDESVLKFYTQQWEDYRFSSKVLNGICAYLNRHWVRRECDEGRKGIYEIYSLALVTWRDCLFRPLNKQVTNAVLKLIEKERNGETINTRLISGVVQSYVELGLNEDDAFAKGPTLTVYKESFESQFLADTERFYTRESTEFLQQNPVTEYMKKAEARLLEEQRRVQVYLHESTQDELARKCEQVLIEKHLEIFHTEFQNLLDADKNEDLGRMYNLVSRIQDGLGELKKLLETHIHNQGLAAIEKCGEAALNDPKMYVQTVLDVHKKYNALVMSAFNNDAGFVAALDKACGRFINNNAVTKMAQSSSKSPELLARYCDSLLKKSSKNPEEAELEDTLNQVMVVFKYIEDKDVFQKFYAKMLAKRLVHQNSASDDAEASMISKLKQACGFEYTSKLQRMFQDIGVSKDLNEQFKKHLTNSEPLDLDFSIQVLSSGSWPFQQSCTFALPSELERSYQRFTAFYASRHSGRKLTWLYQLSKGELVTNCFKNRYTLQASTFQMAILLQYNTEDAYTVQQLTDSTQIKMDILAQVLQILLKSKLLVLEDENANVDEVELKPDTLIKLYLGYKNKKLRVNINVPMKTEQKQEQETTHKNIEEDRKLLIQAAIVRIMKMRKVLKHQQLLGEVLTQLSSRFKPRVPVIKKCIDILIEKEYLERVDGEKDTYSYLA
T1 sequence (P63208 whole entry): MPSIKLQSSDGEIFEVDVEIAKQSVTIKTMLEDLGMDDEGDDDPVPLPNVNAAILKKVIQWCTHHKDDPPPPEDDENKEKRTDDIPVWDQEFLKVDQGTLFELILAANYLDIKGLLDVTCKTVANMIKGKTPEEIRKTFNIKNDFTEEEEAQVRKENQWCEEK
T1 sequence (P62877 whole entry): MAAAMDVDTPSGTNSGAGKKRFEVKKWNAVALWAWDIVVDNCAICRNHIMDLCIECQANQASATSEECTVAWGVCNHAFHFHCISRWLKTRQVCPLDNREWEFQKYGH

`COC(=O)N1CCN(c2ccc(/C=C3\C(=O)N(c4ccccc4)N=C3c3ccncc3)cc2)CC1` [Compound 42] and `COC(=O)N1CCN(c2ccc(/C=C3\C(=O)N(c4ccccc4)N=C3c3cccnc3)cc2)CC1` [Compound 62] cannot be ordered by IC50: under 40 µM for the first, under 40 µM for the second.

`O=C(O)c1ccc(N2N=C(Cc3ccccc3)/C(=C/c3ccc(-n4cccn4)cc3)C2=O)cc1` [Compound 275] and `O=C(O)c1ccc(N2N=C(Cc3ccccc3)/C(=C/c3ccc(-n4cncn4)cc3)C2=O)cc1` [Compound 276] cannot be ordered by IC50: 10 to 20 µM for the first, under 40 µM for the second.

First: COc1cc(C=C2C(=O)N(c3ccc(C(C)(C)C)cc3)N=C2C)ccc1O [Compound 196]
Second: COc1cc(/C=C2\C(=O)N(c3ccc(C(=O)O)cc3)N=C2c2cccnc2)ccc1O [Compound 337]
The IC50 of the first is lower: under 10 µM for the first, 10 to 20 µM for the second. The first is the more potent here.

`CC1=NN(c2cccc(C(=O)N3CCC(CO)CC3)c2)C(=O)/C1=C\c1ccc2c(c1)OCCO2` [Compound 383] and `CC1=NN(c2ccc(C(=O)N3CCOCC3)cc2)C(=O)/C1=C\c1ccc2c(c1)OCCO2` [Compound 386] cannot be ordered by IC50: under 40 µM for the first, 10 to 20 µM for the second.

`CC1=NN(c2cccc(C(=O)O)c2)C(=O)/C1=C\c1ccc(N2CCN(C(=O)c3cnoc3)CC2)cc1` [Compound 445] and `CC1=NN(c2cccc(C(=O)O)c2)C(=O)/C1=C\c1ccc(N2CCN(S(C)(=O)=O)CC2)cc1` [Compound 447] cannot be ordered by IC50: under 10 µM for the first, under 10 µM for the second.

`O=C1/C(=C\c2ccc(CO)o2)C(c2cccnc2)=NN1c1ccccc1` [Compound 64] and `O=C1/C(=C\c2ccc(CO)o2)C(c2ccccn2)=NN1c1ccccc1` [Compound 48] cannot be ordered by IC50: under 40 µM for the first, under 40 µM for the second.

`COc1ccc(C2=NN(c3ccccc3)C(=O)C2=Cc2ccc(CO)o2)cc1OC` [Compound 35] and `COc1ccc(C2=NN(c3ccccc3)C(=O)/C2=C\c2ccc3ccccc3c2)cc1OC` [Compound 97] cannot be ordered by IC50: under 40 µM for the first, 10 to 20 µM for the second.

Compared with `CC1=NN(c2cccc(C(=O)O)c2)C(=O)/C1=C\c1ccc(N2CCNCC2)cc1` [Compound 452], `CC1=NN(c2ccc(C(=O)O)cc2)C(=O)C1=Cc1ccc(N2CCNCC2)cc1` [Compound 451] is higher in IC50: under 10 µM for the first, 10 to 20 µM for the second. The first is the more potent here.

`CC(C)(C)OC(=O)N1CCN(C(=O)C2=NN(c3ccccc3)C(=O)/C2=C\c2ccc(-c3ccccc3F)o2)CC1` [Compound 88] and `O=C1/C(=C\c2ccc(-c3ccccc3F)o2)C(Cc2ccccc2)=NN1c1ccccc1` [Compound 26] cannot be ordered by IC50: under 40 µM for the first, under 40 µM for the second.

`CC1=NN(c2cccc(C(=O)O)c2)C(=O)/C1=C\c1c[nH]c2ccc(Cl)cc12` [Compound 377] and `CC1=NN(c2cccc(S(N)(=O)=O)c2)C(=O)/C1=C\c1c[nH]c2ccc(Cl)cc12` [Compound 147] cannot be ordered by IC50: under 10 µM for the first, under 10 µM for the second.

`CC1=NN(c2cccc(C(=O)O)c2)C(=O)C1=Cc1cc2ccccc2n1C` [Compound 359] and `CC1=NN(c2ccc(S(N)(=O)=O)cc2)C(=O)C1=Cc1cc2ccccc2n1C` [Compound 142] cannot be ordered by IC50: under 10 µM for the first, under 40 µM for the second.

`CC1=NN(c2cccc(C(=O)O)c2)C(=O)/C1=C\c1ccc(S(=O)(=O)O)o1` [Compound 520] and `CC1=NN(c2ccc(C(=O)O)cc2)C(=O)/C1=C\c1ccc(S(=O)(=O)O)o1` [Compound 525] fall in the same range of IC50: 10 to 20 µM for the first, 10 to 20 µM for the second.

`COc1cc(/C=C2\C(=O)N(c3ccc(C(=O)O)cc3)N=C2c2ccccn2)ccc1OCc1ccccc1` [Compound 289] and `COc1ccc(C2=NN(c3ccc(C(=O)O)cc3)C(=O)/C2=C\c2cccc3nccnc23)cc1OC` [Compound 278] cannot be ordered by IC50: 10 to 20 µM for the first, under 40 µM for the second.

`COc1cc(/C=C2\C(=O)N(c3cccc(S(N)(=O)=O)c3)N=C2C)ccc1OCC1CC1` [Compound 160] and `COc1cc(/C=C2\C(=O)N(c3ccc(C(=O)O)cc3)N=C2C)ccc1OCC1CCCCC1` [Compound 406] cannot be ordered by IC50: under 40 µM for the first, 10 to 20 µM for the second.

`O=C1/C(=C\c2ccc(N3CCCC3)cc2)C(c2ccncc2)=NN1c1ccccc1` [Compound 45] and `O=C(O)c1ccc(N2N=C(c3cccnc3)/C(=C/c3ccc(N4CCCC4)cc3)C2=O)cc1` [Compound 309] cannot be ordered by IC50: under 40 µM for the first, under 40 µM for the second.

`O=C1/C(=C\c2ccc(-n3cncn3)cc2)C(C2CC2)=NN1c1ccccc1` [Compound 80] and `NS(=O)(=O)c1ccc(N2N=C(C3CC3)/C(=C/c3ccc(-n4cccn4)cc3)C2=O)cc1` [Compound 110] cannot be ordered by IC50: under 40 µM for the first, under 10 µM for the second.

`O=C(O)c1ccc(N2N=C(c3cccnc3)/C(=C/c3ccc(-c4ccccc4F)o3)C2=O)cc1` [Compound 339] and `COc1ccccc1-c1ccc(/C=C2\C(=O)N(c3cccc(C(=O)O)c3)N=C2C)o1` [Compound 487] cannot be ordered by IC50: 10 to 20 µM for the first, under 40 µM for the second.

`CC1=NN(c2ccccc2)C(=O)/C1=C\c1ccc(OCCCN(C)C)cc1` [Compound 217] and `COC(=O)N1CCN(c2ccc(/C=C3\C(=O)N(c4ccccc4)N=C3C)cc2)CC1` [Compound 95] cannot be ordered by IC50: under 40 µM for the first, under 40 µM for the second.

`COCC1=NN(c2ccccc2)C(=O)/C1=C\c1ccc(-n2cccn2)cc1` [Compound 10] and `COCC1=NN(c2ccc(C(=O)O)cc2)C(=O)/C1=C\c1cccc2nccnc12` [Compound 327] cannot be ordered by IC50: under 40 µM for the first, under 10 µM for the second.

`CC1=NN(c2ccc(C(=O)NCc3ccc4c(c3)OCO4)cc2)C(=O)/C1=C\c1ccc2c(c1)OCCO2` [Compound 397] and `CC1=NN(c2ccc(C(=O)NCC(C)O)cc2)C(=O)C1=Cc1ccc2c(c1)OCCO2` (centres unmarked) [Compound 398] cannot be ordered by IC50: 10 to 20 µM for the first, under 40 µM for the second.

`CC1=NN(c2ccc(S(N)(=O)=O)cc2)C(=O)/C1=C\c1ccc(OS(=O)(=O)c2ccc(C(C)(C)C)cc2)cc1` [Compound 221] and `CC1=NN(c2ccc(S(N)(=O)=O)cc2)C(=O)/C1=C\c1ccc(-n2cncn2)cc1` [Compound 109] cannot be ordered by IC50: 10 to 20 µM for the first, under 40 µM for the second.

Compared with `O=C1/C(=C\c2ccc(CO)o2)C(C2CC2)=NN1c1ccccc1` [Compound 75], `O=C(O)c1ccc(N2N=C(C3CC3)/C(=C/c3ccc(-n4ccnc4)cc3)C2=O)cc1` [Compound 318] is lower in IC50: 10 to 20 µM for the first, under 10 µM for the second. The second is the more potent here.

`CCCCC1=NN(c2ccccc2)C(=O)/C1=C\c1ccc(O)c(OC)c1` [Compound 50] and `COc1ccc(C2=NN(c3ccccc3)C(=O)C2=Cc2ccc3c(c2)OCCO3)cc1` [Compound 93] cannot be ordered by IC50: 10 to 20 µM for the first, under 40 µM for the second.

Compared with `CC1=NN(c2ccc(S(N)(=O)=O)cc2)C(=O)/C1=C\c1ccc(N2CCC(CO)CC2)cc1` [Compound 171], `O=C(O)c1ccc(N2N=C(c3ccoc3)/C(=C/c3ccc(N4CCC(CO)CC4)cc3)C2=O)cc1` [Compound 438] is lower in IC50: 10 to 20 µM for the first, under 10 µM for the second.

`Cn1cc(-c2ccc(/C=C3\C(=O)N(c4cccc(C(=O)O)c4)N=C3Cc3ccccc3)o2)cn1` [Compound 510] and `O=C(O)c1ccc(N2N=C(c3ccoc3)/C(=C/c3ccc4c(c3)OCCO4)C2=O)cc1` [Compound 330] cannot be ordered by IC50: under 40 µM for the first, under 10 µM for the second.

`CC1=NN(c2ccc(C(=O)N3CCOCC3)cc2)C(=O)/C1=C\c1ccc2[nH]ccc2c1` [Compound 357] and `CC1=NN(c2ccc(C(=O)O)cc2)C(=O)/C1=C\c1ccc2cc[nH]c2c1` [Compound 380] cannot be ordered by IC50: under 10 µM for the first, under 10 µM for the second.

`CC1=NN(c2ccc(C(=O)O)cc2)C(=O)/C1=C\c1cccs1` [Compound 517] and `CC1=NN(c2cccc(C(=O)N3CCC(C(=O)O)CC3)c2)C(=O)/C1=C\c1ccc2[nH]ccc2c1` [Compound 374] cannot be ordered by IC50: under 40 µM for the first, under 10 µM for the second.

For `COc1cc(/C=C2\C(=O)N(c3ccc(S(N)(=O)=O)cc3)N=C2C)ccc1OCc1c(C)noc1C` [Compound 158], the IC50 was under 40 µM.

Same assay, conditions: read-out: EVALUATION; enzyme activity inhibition test, method (1), Table 5

`CC1=NN(c2cccc(C(=O)O)c2)C(=O)C1=Cc1ccc(-c2cnn(C)c2)o1` [Compound 495] gave an IC50 of 10 to 20 µM.
